Calls of active or inactive are those of the source.
Tests used:
A-375 [1] = test: MITF: Counter assay: A375 proliferation Measured in Cell-Based System Using Plate Reader - 2084-03_Inhibitor_Dose_DryPowder_Activity. [Related pubchem assays (depositor defined):AID488944]; format: functional; conditions: Homo sapiens
A-375 [2] = test: proliferation inhibition in MITF-low A375 cells – cell-based, cherry-pick samples, set 2, counter-screen for MITF modulator project, dose response (AID 540335); format: functional; conditions: Homo sapiens
Cytochrome P450 2C9 = Cytochrome P450 2C9 (Homo sapiens, UniProt P11712)
Sequence of Cytochrome P450 2C9 (P11712 whole entry): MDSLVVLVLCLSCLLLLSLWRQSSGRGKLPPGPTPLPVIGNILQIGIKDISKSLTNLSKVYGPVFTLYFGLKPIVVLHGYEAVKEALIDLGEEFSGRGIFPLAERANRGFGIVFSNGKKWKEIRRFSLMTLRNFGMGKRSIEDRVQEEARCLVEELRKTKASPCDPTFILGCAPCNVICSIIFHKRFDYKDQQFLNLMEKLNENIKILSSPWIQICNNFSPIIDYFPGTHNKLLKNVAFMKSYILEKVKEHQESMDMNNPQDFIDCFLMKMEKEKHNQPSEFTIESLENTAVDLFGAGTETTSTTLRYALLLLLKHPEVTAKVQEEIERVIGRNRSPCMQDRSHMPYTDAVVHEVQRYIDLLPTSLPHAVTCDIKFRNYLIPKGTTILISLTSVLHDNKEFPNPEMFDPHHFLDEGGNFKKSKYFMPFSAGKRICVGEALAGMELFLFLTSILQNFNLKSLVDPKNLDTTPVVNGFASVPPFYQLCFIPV

[3] = molecular target: DNA (cytosine-5)-methyltransferase 1 (Homo sapiens, UniProt P26358); test: inhibition of DNA methylation by DNMT1 – biochemical, fluorescent molecular beacon, confirmation (AID 602386); format: functional
Sequence of DNA (cytosine-5)-methyltransferase 1 (P26358 whole entry): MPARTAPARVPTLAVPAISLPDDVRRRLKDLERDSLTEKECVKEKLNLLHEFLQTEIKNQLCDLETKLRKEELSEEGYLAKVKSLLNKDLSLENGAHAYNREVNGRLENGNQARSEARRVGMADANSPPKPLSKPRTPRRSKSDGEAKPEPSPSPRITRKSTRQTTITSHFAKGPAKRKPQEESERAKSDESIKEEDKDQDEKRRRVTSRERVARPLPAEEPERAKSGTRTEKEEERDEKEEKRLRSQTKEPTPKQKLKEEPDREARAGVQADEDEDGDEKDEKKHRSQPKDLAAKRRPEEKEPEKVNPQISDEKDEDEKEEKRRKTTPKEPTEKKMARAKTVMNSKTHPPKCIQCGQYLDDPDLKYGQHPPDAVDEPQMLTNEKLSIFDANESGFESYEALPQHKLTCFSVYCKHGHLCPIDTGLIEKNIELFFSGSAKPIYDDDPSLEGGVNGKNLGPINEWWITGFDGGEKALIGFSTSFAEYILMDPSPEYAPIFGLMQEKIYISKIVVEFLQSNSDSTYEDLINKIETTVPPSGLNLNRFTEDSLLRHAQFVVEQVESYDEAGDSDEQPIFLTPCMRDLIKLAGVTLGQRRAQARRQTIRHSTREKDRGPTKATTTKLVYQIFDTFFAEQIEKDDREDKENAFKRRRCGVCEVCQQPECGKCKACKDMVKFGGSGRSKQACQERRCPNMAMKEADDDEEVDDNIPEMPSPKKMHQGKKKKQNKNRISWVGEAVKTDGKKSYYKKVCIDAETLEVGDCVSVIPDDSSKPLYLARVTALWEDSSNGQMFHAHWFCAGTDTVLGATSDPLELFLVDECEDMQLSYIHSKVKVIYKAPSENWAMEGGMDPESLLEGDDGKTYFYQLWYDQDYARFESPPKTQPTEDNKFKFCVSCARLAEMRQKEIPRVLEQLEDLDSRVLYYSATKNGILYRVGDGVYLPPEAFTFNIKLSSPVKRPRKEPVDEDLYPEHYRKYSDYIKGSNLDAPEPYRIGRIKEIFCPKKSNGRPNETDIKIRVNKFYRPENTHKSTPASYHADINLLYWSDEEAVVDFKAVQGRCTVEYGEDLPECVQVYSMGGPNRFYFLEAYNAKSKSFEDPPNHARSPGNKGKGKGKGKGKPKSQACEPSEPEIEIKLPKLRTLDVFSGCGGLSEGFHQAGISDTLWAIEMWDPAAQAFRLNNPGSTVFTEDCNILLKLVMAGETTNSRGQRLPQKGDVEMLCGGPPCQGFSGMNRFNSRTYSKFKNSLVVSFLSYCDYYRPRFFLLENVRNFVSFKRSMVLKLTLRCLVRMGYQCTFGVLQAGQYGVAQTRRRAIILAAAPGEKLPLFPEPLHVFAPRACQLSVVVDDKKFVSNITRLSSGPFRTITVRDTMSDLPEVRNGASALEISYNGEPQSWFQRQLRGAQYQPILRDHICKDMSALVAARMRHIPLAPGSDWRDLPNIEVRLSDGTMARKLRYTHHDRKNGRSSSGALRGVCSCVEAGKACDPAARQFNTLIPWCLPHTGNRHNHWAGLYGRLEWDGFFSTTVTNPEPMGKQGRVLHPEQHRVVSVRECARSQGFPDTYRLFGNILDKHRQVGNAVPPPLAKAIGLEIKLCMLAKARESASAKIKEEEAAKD

BJ [4] = test: BJ-TERT fibroblast viability loss – cell-based, RAS-independent, luminescence, dose response (AID 1933); format: functional; conditions: Homo sapiens
BJ [5] = test: cells; format: functional, cell-based; conditions: Homo sapiens
BJ [6] = test: BJ-TERT-LT-ST fibroblast viability loss – cell-based, RAS-independent, luminescence, dose response (AID 1935); format: functional; conditions: Homo sapiens;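 note: BJ fibroblasts immortalized with TERT plus LT and ST oncogenes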
[7] = DRD fibroblast viability loss – cell-based, non-viral oncogenic, luminescence, dose response (AID 1934); format: functional; conditions: Homo sapiens
BJ [8] = test: growth inhibition of engineered Ras-driven BJ cells – cell-based, alamar blue fluorescence, cherrypicked samples, dose response (AID 2631); format: functional; conditions: Homo sapiens;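 note: confirmatory dose-response assay in RAS-dependent BJ fibroblasts engineered with TERT, LT and ST, with cytotoxicity read by fluorescence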
[9] = molecular target: Peroxisome proliferator-activated receptor gamma/Nuclear receptor coactivator 2 (Homo sapiens, UniProt P37231); format: functional;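 note: agonist potency for raising coactivator recruitment to the receptor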
[10] = molecular target: Peroxisome proliferator-activated receptor gamma/Nuclear receptor coactivator 1 (Homo sapiens, UniProt P37231); format: functional;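 note: agonist potency as compounds enhance coactivator SRC-1 recruitment to PPARgamma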
Sequence of Peroxisome proliferator-activated receptor gamma/Nuclear receptor coactivator 1 (P37231 whole entry): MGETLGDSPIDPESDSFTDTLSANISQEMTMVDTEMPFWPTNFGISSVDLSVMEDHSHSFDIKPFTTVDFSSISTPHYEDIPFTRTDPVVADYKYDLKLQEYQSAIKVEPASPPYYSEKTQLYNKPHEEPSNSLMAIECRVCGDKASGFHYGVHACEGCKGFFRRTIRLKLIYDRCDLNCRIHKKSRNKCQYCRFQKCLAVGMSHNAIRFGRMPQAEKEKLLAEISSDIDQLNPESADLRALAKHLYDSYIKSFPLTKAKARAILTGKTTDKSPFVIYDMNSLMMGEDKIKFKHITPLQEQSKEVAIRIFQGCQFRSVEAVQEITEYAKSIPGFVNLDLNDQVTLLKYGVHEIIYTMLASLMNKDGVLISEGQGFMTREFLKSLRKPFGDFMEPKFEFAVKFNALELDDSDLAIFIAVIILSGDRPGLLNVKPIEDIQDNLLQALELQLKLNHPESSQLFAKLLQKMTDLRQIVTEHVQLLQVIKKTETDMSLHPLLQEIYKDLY
Sequence of Peroxisome proliferator-activated receptor gamma/Nuclear receptor coactivator 1 (Q15788 whole entry, further chain): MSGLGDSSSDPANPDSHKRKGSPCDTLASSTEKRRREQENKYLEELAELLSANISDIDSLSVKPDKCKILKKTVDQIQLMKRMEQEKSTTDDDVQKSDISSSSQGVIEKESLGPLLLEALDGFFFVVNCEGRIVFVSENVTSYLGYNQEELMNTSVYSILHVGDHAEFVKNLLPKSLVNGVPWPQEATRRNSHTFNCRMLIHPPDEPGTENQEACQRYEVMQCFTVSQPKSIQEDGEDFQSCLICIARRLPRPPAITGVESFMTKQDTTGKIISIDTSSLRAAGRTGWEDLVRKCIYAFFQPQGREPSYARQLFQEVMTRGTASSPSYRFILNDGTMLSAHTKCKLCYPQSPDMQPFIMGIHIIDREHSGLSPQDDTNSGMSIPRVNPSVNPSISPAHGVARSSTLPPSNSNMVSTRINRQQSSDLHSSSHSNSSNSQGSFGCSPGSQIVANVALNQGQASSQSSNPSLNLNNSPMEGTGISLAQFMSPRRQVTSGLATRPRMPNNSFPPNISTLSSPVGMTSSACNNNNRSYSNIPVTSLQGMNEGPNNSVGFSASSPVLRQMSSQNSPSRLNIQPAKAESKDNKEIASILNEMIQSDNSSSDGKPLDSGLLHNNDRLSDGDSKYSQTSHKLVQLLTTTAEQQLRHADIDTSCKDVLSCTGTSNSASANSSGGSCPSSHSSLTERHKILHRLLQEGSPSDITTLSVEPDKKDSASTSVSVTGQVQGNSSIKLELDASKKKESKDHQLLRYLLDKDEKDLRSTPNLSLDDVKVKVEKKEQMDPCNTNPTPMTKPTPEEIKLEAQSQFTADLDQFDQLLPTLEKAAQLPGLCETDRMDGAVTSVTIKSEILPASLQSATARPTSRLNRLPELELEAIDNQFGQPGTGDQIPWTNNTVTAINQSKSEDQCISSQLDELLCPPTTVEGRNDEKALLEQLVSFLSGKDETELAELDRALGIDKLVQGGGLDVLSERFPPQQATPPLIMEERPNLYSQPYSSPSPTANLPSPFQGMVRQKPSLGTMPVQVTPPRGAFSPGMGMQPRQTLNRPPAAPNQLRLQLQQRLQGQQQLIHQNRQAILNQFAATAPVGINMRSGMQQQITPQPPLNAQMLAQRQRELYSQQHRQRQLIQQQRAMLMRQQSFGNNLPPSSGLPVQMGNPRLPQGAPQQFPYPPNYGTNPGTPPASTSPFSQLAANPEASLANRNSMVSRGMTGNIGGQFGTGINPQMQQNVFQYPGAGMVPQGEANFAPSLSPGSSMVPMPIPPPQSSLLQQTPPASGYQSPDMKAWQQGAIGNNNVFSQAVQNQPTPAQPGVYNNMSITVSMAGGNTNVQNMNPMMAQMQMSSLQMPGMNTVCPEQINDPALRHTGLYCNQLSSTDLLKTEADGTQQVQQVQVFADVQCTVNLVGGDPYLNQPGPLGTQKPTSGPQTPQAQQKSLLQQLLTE

[11] = molecular target: Peroxisome proliferator-activated receptor gamma/Nuclear receptor coactivator 3 (Homo sapiens, UniProt P37231); format: functional;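 note: agonist potency for raising coactivator recruitment to the receptor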
Insulin-degrading enzyme [12] = molecular target: T1, Insulin-degrading enzyme (Homo sapiens, UniProt P14735); test: recombinant IDE activation, cell-free – biochemical, fluorescence polarization, counter-screen for IDE activator project, dose response (AID 588681)
T1 sequence (P14735 whole entry): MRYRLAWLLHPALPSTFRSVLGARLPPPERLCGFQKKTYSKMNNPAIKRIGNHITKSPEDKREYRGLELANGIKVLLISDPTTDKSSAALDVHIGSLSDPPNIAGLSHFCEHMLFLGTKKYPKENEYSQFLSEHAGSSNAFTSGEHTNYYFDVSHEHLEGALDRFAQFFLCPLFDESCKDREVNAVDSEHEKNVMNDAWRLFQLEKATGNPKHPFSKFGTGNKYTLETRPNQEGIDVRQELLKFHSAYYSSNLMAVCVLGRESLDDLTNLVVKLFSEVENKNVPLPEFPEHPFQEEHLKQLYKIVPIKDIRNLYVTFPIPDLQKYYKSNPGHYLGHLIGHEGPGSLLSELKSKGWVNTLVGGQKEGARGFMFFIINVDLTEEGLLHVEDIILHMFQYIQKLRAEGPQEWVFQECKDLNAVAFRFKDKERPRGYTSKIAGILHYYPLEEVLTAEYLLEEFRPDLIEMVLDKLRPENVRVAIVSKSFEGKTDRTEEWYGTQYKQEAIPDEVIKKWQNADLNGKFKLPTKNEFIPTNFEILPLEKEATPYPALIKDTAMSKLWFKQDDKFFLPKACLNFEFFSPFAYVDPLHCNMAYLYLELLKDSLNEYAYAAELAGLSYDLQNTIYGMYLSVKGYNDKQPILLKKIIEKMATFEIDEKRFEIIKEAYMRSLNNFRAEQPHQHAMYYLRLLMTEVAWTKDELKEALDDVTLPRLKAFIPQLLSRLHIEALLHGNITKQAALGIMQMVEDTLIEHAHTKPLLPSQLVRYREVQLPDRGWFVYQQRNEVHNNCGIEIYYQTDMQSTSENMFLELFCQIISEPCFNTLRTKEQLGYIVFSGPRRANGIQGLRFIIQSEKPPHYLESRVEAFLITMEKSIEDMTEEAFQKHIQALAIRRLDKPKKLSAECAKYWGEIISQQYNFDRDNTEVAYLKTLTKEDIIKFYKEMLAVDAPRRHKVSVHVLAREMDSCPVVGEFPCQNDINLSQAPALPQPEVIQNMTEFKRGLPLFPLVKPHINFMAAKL

Insulin-degrading enzyme [13] = molecular target: T1, Insulin-degrading enzyme; test: cellular IDE activation of Abeta substrate cleavage – fluorescence polarization, HEK cells, dose response (AID 588439); format: functional, cell-based
HEK293 [14] = test: membrane integrity loss in HEK cells – cell-based, fluorescence, cytotoxicity control for IDE activator project, dose response (AID 588440); format: functional; conditions: Homo sapiens;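 note: cytotoxicity by LDH release measuring loss of membrane integrity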
HEK293 [15] = test: optical interference in Abeta FP readout, dose response, artefact control for IDE activator project, biochemical, fluorescence polarization (AID 588442); format: functional, cell-based; conditions: Homo sapiens
[16] = THP-1 cell cytotoxicity, dose response, cytotoxicity control for non-replicating M. tuberculosis project (AID 489025); format: functional
[17] = Luminescence Cell-Based Dose Retest to Confirm Inhibitors of Cancer Stem Cells. [Related pubchem assays (depositor defined):AID2717, AID2721]; format: functional; conditions: Homo sapiens
[18] = HepG2 cell cytotoxicity, dose response, cytotoxicity control for non-replicating M. tuberculosis project (AID 489018); format: functional; conditions: Mycobacterium tuberculosis
[19] = Vero E6 cell cytotoxicity, dose response, cytotoxicity control for non-replicating M. tuberculosis project, secondary assay (AID 492998); format: functional, VeroE6; conditions: Vero C1008
[20] = molecular target: T2, Microphthalmia-associated transcription factor (Homo sapiens, UniProt O75030); test: reducers of TRPM1 reporter luminescence, concentration series – cell-based, SK-MEL-5, cherry-picked, set 3, MITF inhibitor project, dose response (AID 493073); format: functional;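 note: SK-MEL-5 melanoma cells with luciferase driven by the MITF target TRPM1 promoter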
T2 sequence (O75030 whole entry): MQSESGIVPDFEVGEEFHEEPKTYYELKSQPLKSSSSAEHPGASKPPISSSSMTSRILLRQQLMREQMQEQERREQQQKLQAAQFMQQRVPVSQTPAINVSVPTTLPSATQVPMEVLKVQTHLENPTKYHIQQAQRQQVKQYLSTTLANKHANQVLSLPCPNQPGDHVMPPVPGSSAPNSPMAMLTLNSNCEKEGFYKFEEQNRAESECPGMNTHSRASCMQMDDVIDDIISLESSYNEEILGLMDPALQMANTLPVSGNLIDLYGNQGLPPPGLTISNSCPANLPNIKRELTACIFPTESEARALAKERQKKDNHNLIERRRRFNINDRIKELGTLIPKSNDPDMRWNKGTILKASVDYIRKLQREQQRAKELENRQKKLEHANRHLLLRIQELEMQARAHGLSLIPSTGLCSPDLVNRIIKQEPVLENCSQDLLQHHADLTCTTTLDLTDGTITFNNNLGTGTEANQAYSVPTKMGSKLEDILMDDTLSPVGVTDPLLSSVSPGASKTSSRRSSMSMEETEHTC

cells = format: functional
HeLa = test: ATP-based viability loss in HeLa cells – cell-based, CellTiter-Glo luminescence, cherry-pick samples, cytotoxicity control for MITF activator project, dose response (AID 540259); format: functional; conditions: Homo sapiens

In the case of O=C(NCC1CCCO1)c1cc(-c2ccc(Cl)cc2Cl)on1 (centres undefined), the AC50 (A-375 [1]) is reported as > 11 µM (active), the AC50 (A-375 [2]) is reported as > 11 µM (active) and the AC50 (Cytochrome P450 2C9) is reported as “inconclusive”.
For Cn1c2ccccc2c2c(=O)oc3ccccc3c21, the IC50 [3] was > 99 µM (inactive).
In the case of COc1ccc(N/C=C/C(=O)c2cc(OC)c(OC)c(OC)c2)cc1, the EC50 (BJ [4]) is reported as 666 nM (active), the EC50 (BJ [5]) is reported as 20.5 µM (inconclusive) and the EC50 (BJ [6]) is reported as 441 nM (inconclusive). For the same compound, the EC50 [7] was 603 nM (active) and the EC50 (BJ [8]) was 133 nM (active).
With COc1ccc2c(-c3ccccc3)cc(SCC(=O)NC(N)=O)nc2c1 the EC50 [9] was > 79.4 µM (not active), the EC50 [10] was > 79.4 µM (not active) and the EC50 [11] was > 79.4 µM (not active). For the same compound, the EC50 (Insulin-degrading enzyme [12]) was > 54.7 µM (inactive), the EC50 (Insulin-degrading enzyme [13]) was > 54.7 µM (inactive) and the IC50 (HEK293 [14]) was 22.3 µM (inactive). For the same compound, the EC50 (HEK293 [15]) was > 55.9 µM (inactive).
With CC1CCCC(NCC(O)COC(c2ccc(F)cc2)c2ccc(F)cc2)C1C (centres undefined) the CC50 [16] was 15.8 µM (active), the AC50 [17] was 6.35 µM (active) and the CC50 [18] was 16.1 µM (active). The CC50 [19] was > 20 µM (active), the AC50 [20] was 10.8 µM (active) and the IC50 (cells) was 11.4 µM (active). For the same compound, the AC50 (A-375 [2]) was 20.2 µM (active).
In the case of C/C(=N\Nc1ccccn1)c1ccc(C(C)C)cc1, the AC50 (HeLa) is reported as 46.7 µM (active).

— ChEMBL document CHEMBL1201862, “PubChem BioAssay data set” (2004)
